Where two headings read alike, the source gives them in different places.
How the values were obtained:
[1] = system: BCL11A, TRIM24, p53, p21, BAX, PUMA and MDM2; experiment: qRT-PCR of p53 suppressors and p53 target genes in MV4-11 cells; format: cell-based, human; details: 1 μM, 6 hours
Method: (§1) A total RNA was isolated with RNeasy mini kit (Qiagen) and reverse transcribed with Reverse script kit (TOYOBO) to generate cDNA. Real-time quantitative polymerase chain reaction (PCR) was carried out with 7500 Real-Time PCR System (Applied Biosystems) according to the manufacturer's instructions. Results were normalized to GAPDH levels. Relative expression levels were calculated using the 2-ΔΔCt method.

RERF-LC-MS = experiment: Cell viability, lung adenocarcinoma RERF-LC-MS; format: cell-based, human; details: RERF-LC-MS (EGFR wild-type p53-mutated), 48 hours
p53, p21, PUMA, and BAX = experiment: Western blotting of apoptosis-related factors in lung adenocarcinoma cells; format: cell-based, human; details: A549 cells and LU99A cells, 1 μM, 24 hours
Method: Cells were washed twice with ice cold phosphate-buffered saline (PBS) and harvested in protein lysis buffer [50 mM Tris (pH 7.4), 100 mM NaCl, 0.1 mM EDTA, 1 mM phenylmethylsulfonyl fluoride, 1 mM β-glycerophosphate, 2.5 mM sodium pyrophosphate, 1 mM Na3VO4, lx protease inhibitor (Roche) and PhosSTOP (Roche)]. Whole cell extracts were separated by SDS-polyacrylamide gel electrophoresis (SDS-PAGE) and electrotransferred onto polyvinylidene difluoride membranes. […] Blots were detected using Chemi-Lumi One Super (nacalai tesque, Inc.) and ChemiDoc™ XRS+ Imager (Bio-Rad Laboratories, Inc.), as recommended by the manufacturers. Protein levels were quantified with Image Lab Software (Bio-Rad Laboratories, Inc.).
To A549 cells and LU99A cells, 1 μM Chb-M′ was administered. After 24 hours, the expression levels of apoptosis-related factors (p53, p21, PUMA, and BAX) were evaluated by the Western blotting method (see the above-described “Immunoblotting”). […]

HMC-1.2 cell line = experiment: Cell proliferation of HMC-1.2 mast cells; format: cell-based, human
[2] = system: c-kit, phospho-c-Kit, AKT, phosphorylated AKT, Mitf; experiment: Western blot of KIT signalling, LAD2 mast cells; format: cell-based, human; details: LAD2, 10 μM, 18 hours
Method: Cells were washed twice with ice cold phosphate-buffered saline (PBS) and harvested in protein lysis buffer [50 mM Tris (pH 7.4), 100 mM NaCl, 0.1 mM EDTA, 1 mM phenylmethylsulfonyl fluoride, 1 mM β-glycerophosphate, 2.5 mM sodium pyrophosphate, 1 mM Na3VO4, lx protease inhibitor (Roche) and PhosSTOP (Roche)]. Whole cell extracts were separated by SDS-polyacrylamide gel electrophoresis (SDS-PAGE) and electrotransferred onto polyvinylidene difluoride membranes. Membranes were probed with the following antibodies: anti-Ctip1 antibody (Abcam, ab19487), anti-TRIM24 antibody (Bethyl Laboratories, Inc), anti-RUNX1 antibody (A-2), anti-GAPDH (FL-335), anti-p21 (C-19), anti-Bax (N-20) antibodies (Santa Cruz Biotechnology, Inc.), anti-RUNX2, anti-RUNX3, anti-p53 antibodies (Cell Signaling Technology), anti-CBFβ antibody (FL-182, Santa Cruz Biotechnology, Inc.), anti-cleaved caspase-3 antibody (5A1E, Cell Signaling Technology), anti-PARP antibody (46D11, Cell Signaling Technology). For secondary antibodies, anti-rabbit IgG, or anti-mosue IgG HRP-linked antibodies (Cell Signaling Technology) were used. Blots were detected using Chemi-Lumi One Super (nacalai tesque, Inc.) and ChemiDoc™ XRS+ Imager (Bio-Rad Laboratories, Inc.), as recommended by the manufacturers. Protein levels were quantified with Image Lab Software (Bio-Rad Laboratories, Inc.).
To the LAD2 cell line and the HMC-1.2 cell line, 10 μM Chb-M′ was administered. After culturing the cells for 18 hours, extracts were obtained from the cells, and the protein expression levels of c-kit, phospho-c-Kit, AKT, phosphorylated AKT, Mitf, and GAPDH were analyzed by the Western blot analysis (see the above-described “Immunoblotting”) using different antibodies. AKT is an important signaling protein downstream of c-kit. Mitf is a representative transcriptional driver for c-kit. As a control, DMSO was administered. In the figure, “KIT” indicates c-kit, “pKIT” indicates phosphorylated c-kit, and “pAKT” indicates phosphorylated AKT. As primary antibodies, an anti-c-Kit antibody (Ab81, manufactured by Cell Signaling Technology), an anti-phospho-c-Kit (Tyr719) antibody (manufactured by Cell Signaling Technology), an anti-Akt antibody (manufactured by Cell Signaling Technology), an anti-phospho-Akt antibody (Ser473) (manufactured by Cell Signaling Technology), an anti-Mitf antibody (manufactured by Cosmo Bio), and an anti-GAPDH antibody (0411, manufactured by Santa Cruz Biotechnology, Inc.) were used. As secondary antibodies, an ECL™ anti-mouse IgG horseradish peroxidase-linked whole antibody (manufactured by GE Healthcare) and an ECL™ anti-rabbit IgG linked whole antibody (manufactured by GE Healthcare) were used.

SU/SR cells = details: read-out: IC50 value; SU/SR (imatinib-resistant), 48 hours
PC-3 cells = experiment: PI-AnnexinV apoptosis staining, PC-3 cells; format: cell-based, human; details: PC-3, 3 μM, 48 hours and 72 hours
Method: To PC-3 cells, 3 μM Chb-M′ was administered. After 48 hours and 72 hours, the percentage of apoptosis was analyzed by PI-AnnexinV apoptosis staining. As a control, DMSO was administered. As a result, the apoptosis rate was increased depending on the […] of Chb-M′ (FIG. 46).

HL60 = details: HL60, p53null; for IC50: 48 hours
Kasumi-1 = details: Kasumi-1, p53mut(+); for IC50: 48 hours
SU-Ph2 cells = experiment: Cell growth inhibition assay, SU-Ph2 cells; format: cell-based, human; details: SU-Ph2, 48 hours
SOS1 = experiment: qRT-PCR of SOS1 in MKN45 gastric cancer cells; format: cell-based, human; details: MKN45, 1 μM, 6 hours
Method: as §1
To the MKN45 gastric cancer cell line, 1 μM of Chb-M′ was administered. After 6 hours, the mRNA level of SOS1 was evaluated by RT-PCR method using qRT-PCR (see the above-described “Real-time quantitative PCR (qRT-PCR)”). As a control, DMSO was administered. In the figure, the mRNA expression level of SOS1 is shown as a value relative to that in the DMSO-treated group.

MV4-11 cells = experiment: Xenograft AML mouse model (MV4-11); format: in vivo; details: NOG mice with MV4-11, day 14
[3] = concomitant use of Chb-M′ and PRIMA-1, Chou-Talalay, CI<1 synergism
[4] = read-out: IC50 (μM) of Chb-M′ in concomitant use with PRIMA-1 (5 μM), with 5 μM PRIMA-1
[5] = read-out: IC50 (μM) of Chb-M′ single agent administration

SMILES: CN(C)CCCNC(=O)c1cc(NC(=O)c2cc(NC(=O)c3cc(NC(=O)c4cc(NC(=O)CCCNC(=O)c5nc(NC(=O)c6nc(NC(=O)c7cc(NC(=O)c8nc(NC(=O)CCNC(=O)CCCc9ccc(N(CCCl)CCCl)cc9)cn8C)cn7C)cn6C)cn5C)cn4C)cn3C)cn2C)cn1C [Chb-M′]
- Gene expressions of p53 suppressors BCL11A and TRIM24 [1]: down-regulated
- mRNA expression level of p53 [1]: unchanged
- mRNA expression levels of p21 and PUMA [1]: increased
- IC50 compared with the EGFR inhibitor (gefitinib) (RERF-LC-MS): lower IC50 values
- p53 and p21 and apoptotic factors PUMA and BAX (protein) (p53, p21, PUMA, and BAX): enhanced
- Cell proliferation of mast cells having mutated c-kit (HMC-1.2 cell line): suppression
- Expression of c-kit protein [2]: suppressed
- Level of phosphorylated AKT protein [2]: decreased
- Protein expression level of Mitf [2]: not affected
- Total amount of AKT [2]: not considerably changed
- phospho-c-Kit protein [2]: suppressed
- CI (Fa = 0.5) (MV4-11NR; p53mut(+), concomitant use of Chb-M′ and PRIMA-1, Chou-Talalay, CI<1 synergism): 0.380
- IC50 (MV4-11NR; read-out: IC50 (μM) of Chb-M′ in concomitant use with PRIMA-1 (5 μM), p53mut(+), 48 hours, with 5 μM PRIMA-1): 0.00103 µM
- IC50 (MV4-11NR; read-out: IC50 (μM) of Chb-M′ single agent administration, p53mut(+), 48 hours): > 100 µM
- IC50 (SU/SR cells): 0.044 µM
- Apoptosis rate (PC-3 cells): increased
- CI (Fa = 0.5) (HL60; [3]): 1.10
- IC50 (HL60; [4]): 11.7 µM
- IC50 (HL60; [5]): 11.4 µM
- CI (Fa = 0.5) (Kasumi-1; [3]): 0.156
- IC50 (Kasumi-1; [4]): 0.359 µM
- IC50 (Kasumi-1; [5]): > 100 µM
- IC50 compared with that of imatinib (SU-Ph2 cells): lower IC50 values
- Expression of SOS1 (mRNA) (SOS1): suppressed
- H&E staining of bone marrow (MV4-11 cells): homogeneity was lost
- hCD45 staining of bone marrow (human leukemia cells) (MV4-11 cells): most of the brown parts lost
